Test results reported in patent US6355426B2, “Methods for the characterization and selection of RNA target motifs that bind compounds of pharmaceutical use” (priority 1996, dated 2002).

Assays:
[1] = test system: E. coli strains DH5a and JM109; experiment: Growth of pGEMR / pGEMR294 transformants on plates with varying concentrations of spectinomycin; type: cell-based; settings: 37° C.
Protocol: E. coli strains DH5a and JM109 were conventionally transformed with pGP1-2, and were subsequently transformed by pGEMR (control) and pGEMR294 (which contains the 16S sequence) as described above in Example 1D. Transformants were selected on LB agar containing ampicillin (200 ug/mL) and kanamycin ([…]). These transformants were subsequently examined for their ability to grow in the presence of varying concentrations of spectinomycin (5, 10, 15, 20 and 40 ug/mL). Spectinomycin resistant transformants were recovered at 37° C.
By contrast, transformants of pGEMR294 grew in the presence of the drug up to […]. Plasmids isolated from the transformants and used to retransform each strain, confirmed that resistance was indeed plasmid dependent.

E. coli strain DC2 = experiment: Selection of spectinomycin-resistant transformants from a random rRNA fragment library; type: cell-based
Source text: Random rDNA fragments were generated by restriction endonuclease digestion of the entire rrnB operon encoding all three rDNAs (16S, 23S and 5S) and the spacer regions using a range and combination of one or more enzymes (including either AluI, HaeIII or DpnI or a double digestion with AluI/DpnI or HaeIII/DpnI) in which recognition sites occurred frequently within the target sequence. The enzymes AluI, HaeIII and DpnI release fragments that can be cloned in either orientation in to the SmaI site on pGEMR.
The fragments were ligated into the SmaI site in pGEMR and used to transform the respective strains. The diversity of RNA fragments within the library was determined by in vitro transcription of radiolabeled transcripts using the RIBOMAXÔ system (Promega), resolution by denaturing gel electrophoresis, and autoradiography according to standard procedures [Sambrook et al, cited above]. Briefly described, to establish that the pool of transformants harbored pGEMR encoding a mixed population of rRNA fragments, the plasmids were isolated, linearized with HindIII and transcribed in vitro with T7 RNA polymerase in the presence of ^32PaUTP. The products were resolved by denaturing gel electrophoresis and visualized by autoradiography. The library consisted of a large number of transcripts, varying in size with an average of 200-500 nucleotides in length. […]

[2] = test system: 30S subunits and 3' domain 16S rRNA sub-particle; settings: 30S subunits and reconstituted 3' domain particle (nucleotides 923-1542 with eight r-proteins); cited from earlier work

Structure (SMILES): CN[C@@H]1[C@H](O)[C@H](NC)[C@H]2O[C@@]3(O)C(=O)C[C@@H](C)O[C@H]3O[C@@H]2[C@H]1O [spectinomycin]
- spectinomycin concentration up to which transformants grew ([1]; transformants of pGEMR294 (16S rRNA fragment nucleotides 972-1266, helix 34) with pGP1-2): up to 20 mg/mL
- spectinomycin concentration above which transformants did not survive on plates ([1]; transformants of pGEMR (control) with pGP1-2): above 5 mg/mL
- spectinomycin concentration up to which resistant transformants developed on plates (E. coli strain DC2; DC2 (pGP1-2) transformed with rRNA fragment library (16S/23S hybrid fragment), after 48 hours incubation at 37° C.): up to 40 ug/mL
- level of spectinomycin resistance, transformants expressing 16/23S RNA versus wild type helix 34 fragment (E. coli strain DC2; comparison of transformants expressing 16/23S hybrid RNA with those encoding wild type helix 34 fragment): higher level of spectinomycin resistance
- binding affinity to 30S subunit versus 3' domain sub-particle (dependence of protection on drug concentration) [2]: binds with similar affinity to each particle
